Measured values taken from the NIST ThermoML archive (doi:10.1021/acs.jced.9b00424).

Assays:
[1] = xn = mol fraction of the nth substance listed; conditions: x1 = 1; for viscosity: 100 kPa, Concentric cylinders viscometry; for viscosity / mass density: Liquid; for mass density: 101 kPa, Vibrating tube method; for surface tension liquid-gas: Pendant drop shape

CCCCCCCC(=O)O [octanoic acid]
Liquid, Pendant drop shape
Conditions	surface tension liquid-gas [mN/m]
297.82 K	30.95
302.68 K	30.04
308.49 K	28.56
312.93 K	27.56
317.8 K	26.06
322.15 K	24.99
327.39 K	24.46
331.72 K	23.43

Liquid
Conditions	mass density [kg/m3]	viscosity [mPa·s]
298.15 K, 100 kPa, Concentric cylinders viscometry	–	5.17
298.15 K, 101 kPa, Vibrating tube method	917.2	–
303.15 K, 100 kPa, Concentric cylinders viscometry	–	4.54
303.15 K, 101 kPa, Vibrating tube method	910.3	–
308.15 K, 100 kPa, Concentric cylinders viscometry	–	4.01
308.15 K, 101 kPa, Vibrating tube method	903.8	–
313.15 K, 100 kPa, Concentric cylinders viscometry	–	3.59
313.15 K, 101 kPa, Vibrating tube method	897.6	–
318.15 K, 100 kPa, Concentric cylinders viscometry	–	3.2
318.15 K, 101 kPa, Vibrating tube method	891.7	–
323.15 K, 100 kPa, Concentric cylinders viscometry	–	2.88
323.15 K, 101 kPa, Vibrating tube method	886.2	–
328.15 K, 100 kPa, Concentric cylinders viscometry	–	2.609
328.15 K, 101 kPa, Vibrating tube method	880.9	–
333.15 K, 100 kPa, Concentric cylinders viscometry	–	2.372
333.15 K, 101 kPa, Vibrating tube method	876	–
338.15 K, 100 kPa, Concentric cylinders viscometry	–	2.166
338.15 K, 101 kPa, Vibrating tube method	871.4	–
343.15 K, 100 kPa, Concentric cylinders viscometry	–	1.985
343.15 K, 101 kPa, Vibrating tube method	867.1	–
348.15 K, 100 kPa, Concentric cylinders viscometry	–	1.826
348.15 K, 101 kPa, Vibrating tube method	863	–
353.15 K, 100 kPa, Concentric cylinders viscometry	–	1.683
353.15 K, 101 kPa, Vibrating tube method	859.3	–

CC(C)[C@@H]1CC[C@@H](C)C[C@H]1O (racemic) [DL-menthol]
Conditions	mass density [kg/m3]	viscosity [mPa·s]
303.15 K, 100 kPa, Metastable liquid, Concentric cylinders viscometry	–	33.9
303.15 K, 101 kPa, Metastable liquid, Vibrating tube method	898.2	–
308.15 K, 100 kPa, Concentric cylinders viscometry, Liquid	–	23.19
308.15 K, 101 kPa, Vibrating tube method, Liquid	892.2	–
313.15 K, 100 kPa, Concentric cylinders viscometry, Liquid	–	16.44
313.15 K, 101 kPa, Vibrating tube method, Liquid	886.4	–
318.15 K, 100 kPa, Concentric cylinders viscometry, Liquid	–	12
318.15 K, 101 kPa, Vibrating tube method, Liquid	881	–
323.15 K, 100 kPa, Concentric cylinders viscometry, Liquid	–	9
323.15 K, 101 kPa, Vibrating tube method, Liquid	875.8	–
328.15 K, 100 kPa, Concentric cylinders viscometry, Liquid	–	6.92
328.15 K, 101 kPa, Vibrating tube method, Liquid	870.8	–
333.15 K, 100 kPa, Concentric cylinders viscometry, Liquid	–	5.43
333.15 K, 101 kPa, Vibrating tube method, Liquid	866.2	–
338.15 K, 100 kPa, Concentric cylinders viscometry, Liquid	–	4.34
338.15 K, 101 kPa, Vibrating tube method, Liquid	861.7	–
343.15 K, 100 kPa, Concentric cylinders viscometry, Liquid	–	3.53
343.15 K, 101 kPa, Vibrating tube method, Liquid	857.6	–
348.15 K, 100 kPa, Concentric cylinders viscometry, Liquid	–	2.92
348.15 K, 101 kPa, Vibrating tube method, Liquid	853.7	–
353.15 K, 100 kPa, Concentric cylinders viscometry, Liquid	–	2.446
353.15 K, 101 kPa, Vibrating tube method, Liquid	850	–

surface tension liquid-gas [mN/m]
Conditions	303.79 K	308.76 K	314.03 K	318.76 K	323.45 K	328.55 K	333.09 K
Metastable liquid, Pendant drop shape	21.82	–	–	–	–	–	–
Pendant drop shape, Liquid	–	21.35	20.44	19.91	19.18	18.76	18.15

CC(C)[C@@H]1CC[C@@H](C)C[C@H]1O [DL-menthol] + CCCCCCCC(=O)O
[1]
Conditions	mass density [kg/m3]	surface tension liquid-gas [mN/m]	viscosity [mPa·s]
303.15 K	898.2	–	33.9
303.79 K	–	21.82	–
308.15 K	892.2	–	23.19
308.76 K	–	21.35	–
313.15 K	886.4	–	16.44
314.03 K	–	20.44	–
318.15 K	881	–	12
318.76 K	–	19.91	–
323.15 K	875.8	–	9
323.45 K	–	19.18	–
328.15 K	870.8	–	6.92
328.55 K	–	18.76	–
333.09 K	–	18.15	–
333.15 K	866.2	–	5.43
338.15 K	861.7	–	4.34
343.15 K	857.6	–	3.53
348.15 K	853.7	–	2.92
353.15 K	850	–	2.446
